Activity calls are given as the source filed them.

The test system of series [1] is A-431. The series is described as follows: Antiproliferative activity against human A-431 cells assessed as reduction in cell viability incubated for 72 hrs by sulforhodamine B assay. Particulars: A-431, 72 h. Type of series: functional, cell-based. (In general: In SRB staining, fixed cells bind dye roughly in proportion to their protein.)
Series [2] is described as follows: Selectivity ratio of IC50 for antiproliferative activity against human A-431 cells to IC50 for antiproliferative activity against human NCI-H1975 cells. Type of series: functional.
For series [3], the system named is NCI-H1975. The series is described as follows: Antiproliferative activity against human NCI-H1975 cells assessed as reduction in cell viability incubated for 72 hrs by sulforhodamine B assay. Type of series: functional, cell-based. Particulars: NCI-H1975, 72 h.
Series [4] deals with BaF3. The series is described as follows: cells. Particulars: Mus musculus, BaF3, 72 h.
Series [5] concerns BaF3. The series is described as follows: cells. The following applies: Mus musculus, BaF3, 72 h. This is another data set of the same source.
Series [6] is described as follows: Intrinsic clearance in Sprague-Dawley rat liver microsomes preincubated for 10 mins under shaking condition followed by NADPH generating system addition and measured up to 60 mins by LC-MS/MS analysis. Type of series: ADME, Microsome. The following applies: 1 h, time <=70 min.
Series [7] can be described thus: Apparent oral clearance in Sprague-Dawley rat at 6 mg/kg/day, IG administered as single dose and measured up to 24 hrs by LC-MS/MS analysis. Particulars: in vivo. Type of series: ADME, organism-based.
Series [8] in a line: Half life in CD1 mouse liver microsomes preincubated for 10 mins under shaking condition followed by NADPH generating system addition and measured up to 60 mins by LC-MS/MS analysis. A general note: Microsomes from liver hold many membrane-bound enzymes, among them those of drug oxidation.
Series [9] in a line: in vitro. Particulars: human, liver microsomes.
Series [10] in a line: Intrinsic clearance in cynomolgus monkey liver microsomes preincubated for 10 mins under shaking condition followed by NADPH generating system addition and measured up to 60 mins by LC-MS/MS analysis. Type of series: ADME, Macaca fascicularis, Microsome. Particulars: 1 h, time <=70 min.
The nature of series [11]: Intrinsic clearance in Beagle dog liver microsomes preincubated for 10 mins under shaking condition followed by NADPH generating system addition and measured up to 60 mins by LC-MS/MS analysis. Type of series: ADME, Canis lupus familiaris, Microsome. Particulars: 1 h, time <=70 min.
The nature of series [12]: Intrinsic clearance in human liver microsomes preincubated for 10 mins under shaking condition followed by NADPH generating system addition and measured up to 60 mins by LC-MS/MS analysis. Type of series: ADME, Microsome. The following applies: 1 h, time <=70 min.
Series [13] is described as follows: in vivo. Particulars: Sprague-Dawley, rat, po, 6 mg/kg.
The nature of series [14]: Tmax in Sprague-Dawley rat assessed as AZ5104 at 6 mg/kg/day, IG administered as single dose and measured up to 24 hrs by LC-MS/MS analysis. Type of series: ADME, organism-based. Particulars: in vivo, po.
Series [15] can be described thus: Cmax in Sprague-Dawley rat assessed as AZ5104 at 6 mg/kg/day, IG administered as single dose and measured up to 24 hrs by LC-MS/MS analysis. Type of series: ADME, organism-based. The arrangement: route […], dose 6 mg/kg/day, time <=24. The following applies: in vivo, po.
The nature of series [16]: Intrinsic clearance in CD1 mouse liver microsomes preincubated for 10 mins under shaking condition followed by NADPH generating system addition and measured up to 60 mins by LC-MS/MS analysis. Type of series: ADME, Microsome. Particulars: 1 h, time <=70 min.
A short description of series [17]: Cmax in Sprague-Dawley rat at 6 mg/kg/day, IG administered as single dose and measured up to 24 hrs by LC-MS/MS analysis. Type of series: ADME, organism-based. The arrangement: route […], dose 6 mg/kg/day, time <=24. The following applies: in vivo, po.
Series [18] in a line: Toxicity in Balb/c nude mouse xenografted with human NCI-H1975 cells harboring EGFR L858R/T790M mutant assessed as change in body weight at 1.5 to 2.5 mg/kg, po QD administered via gavage for 24 days and measured twice weekly. Type of series: organism-based. Particulars: in vivo, 576 h, dose 1.5-2.5 mg/kg, time 24 day. (Xenograft models place foreign cells or tissue in a host animal.)

Series [19] is described as follows: Half life in Sprague-Dawley rat liver microsomes preincubated for 10 mins under shaking condition followed by NADPH generating system addition and measured up to 20 mins by LC-MS/MS analysis.
Series [20] can be described thus: Half life in cynomolgus monkey liver microsomes preincubated for 10 mins under shaking condition followed by NADPH generating system addition and measured up to 60 mins by LC-MS/MS analysis.
Series [21] can be described thus: Half life in Beagle dog liver microsomes preincubated for 10 mins under shaking condition followed by NADPH generating system addition and measured up to 60 mins by LC-MS/MS analysis.
Series [22] concerns BaF3. The series is described as follows: Antitumor activity against mouse BAF3 cells harboring EGFR del19/T790M mutant xenografted in Balb/c nude mouse assessed as suppression of tumor growth at 3 to 5 mg/kg, po QD administered via gavage for 18 days relative to control. Particulars: dose 3-5 mg/kg, time 18.0 day, tested as the 2H-labelled form. Type of series: functional, organism-based.

Turning to `C=C(C(=O)Nc1cc(Nc2nccc(-c3cn(C)c4ccccc34)n2)c(OC)cc1N(C)CCN(C)C)C(F)(F)F`, the IC50 stood at 11200 nM in series [1] and 546 nM in [3]. In addition, in [2], the “Ratio IC50” value came to 21.
As to `[2H]C([2H])=CC(=O)Nc1cc(Nc2nccc(-c3cn(C)c4ccccc34)n2)c(OC)cc1N(C)CCN(C)C`, the IC50 in [1] came to […]; in [3], […].
For the compound `C=C(F)C(=O)Nc1cc(Nc2nccc(-c3cn(C)c4ccccc34)n2)c(OC)cc1N(C)CCN(C)C`, the results for the IC50 in [1] and in [3] were 2500 nM and 208 nM, respectively. Moreover, in [2], the “Ratio IC50” value was found to be 12.
As for `[2H]C([2H])=CC(=O)Nc1cc(Nc2nccc(-c3cn(C([2H])([2H])[2H])c4ccccc34)n2)c(OC)cc1N(C)CCN(C)C`, the IC50 in [4] came to 18 nM; in [5], 3.5 nM; in series [1], […]; in [3] it was […].
Regarding `C=C(Br)C(=O)Nc1cc(Nc2nccc(-c3cn(C)c4ccccc34)n2)c(OC)cc1N(C)CCN(C)C`, the IC50 in series [1] amounted to 1060 nM; in series [3], 147 nM. For the same compound, the “Ratio IC50” value in series [2] is on record as 7.
Taken in the same sequence, the figures for `C/C=C/C(=O)Nc1cc(Nc2nccc(-c3cn(C)c4ccccc34)n2)c(OC)cc1N(C)CCN(C)C` were 5790 nM, 496 nM and 12.
Consider `C=CC(=O)Nc1cc(Nc2nccc(-c3cn(C)c4ccccc34)n2)c(OC)cc1N(C)CCN(C)C` [OSIMERTINIB], for which the CLint in series [6] was found to be 37.6 µL/min/mg; in series [10], 41.7 µL/min/mg; in [11], 53.2 µL/min/mg; in [12] it was 8.1 µL/min/mg; in series [16], 62.1 µL/min/mg. In addition, the CL/F in series [7] turned out to be 313 mL/min/kg. For the same compound, the half-life at 1 h turned out to be 22.3 min in [8], […] in series [9], […] in [20] and 26.1 min in [21]. The compound also had a half-life at 24 h in [13] of 227 min. Besides, the IC50 is 21.5 nM in series [4], 4 nM in series [5] and […] in series [1]. In series [14], the Tmax was 380 min. The figures for the Cmax in [15] and in series [17] were 6.4 nM and 145 nM, respectively. In addition, in series [18], the Activity entry is “Toxic”. In series [19], this compound came in with a half-life at 20 min of 36.8 min. Further, the outcome in series [22] was Active.
Take `C=C(C)C(=O)Nc1cc(Nc2nccc(-c3cn(C)c4ccccc34)n2)c(OC)cc1N(C)CCN(C)C`: the IC50 in [1] was found to be 5340 nM; in [3] it was 486 nM. Further, the “Ratio IC50” value in series [2] came to 11.
`C=C(Cl)C(=O)Nc1cc(Nc2nccc(-c3cn(C)c4ccccc34)n2)c(OC)cc1N(C)CCN(C)C`: the results for the IC50 in series [1] and in [3] were 1550 nM and 241 nM, respectively. Also, the “Ratio IC50” value in [2] came out at 6.

Broadly, the IC50 is the midpoint of a concentration-inhibition curve. For orientation: CL/F means clearance divided by bioavailability, as obtained after extravascular dosing. The term half-life denotes the time needed for the level to fall by half in the phase considered. What is called Tmax is the time from dosing to the highest level. Broadly, the Cmax is the highest concentration seen after dosing.

(Values after ChEMBL document CHEMBL4732150 (J Med Chem, 2021).)
